Laboratory results reported in article PMC9423655, “Huntington’s disease phenotypes are improved via mTORC1 modulation by small molecule therapy” (PLoS ONE, 2022).

How the values were obtained:
[1] = test system: Sestrin2; design: method as in PMID 30858438, PMID 30990795; conditions: cited from earlier work
[2] = test system: mTORC1; design: method as in PMID 30858438, PMID 30990795; conditions: cited from earlier work
[3] = test system: medial prefrontal cortex; design: method as in PMID 30990795; conditions: cited from earlier work
[4] = test system: mTORC1; test: mTORC1 activation (pS6K1 immunoblot) in leucine-starved HEK293T cells; type: cell-based; conditions: HEK293T cells starved of leucine 50 minutes, treatment 10 minutes
Procedure: (§1) All cell lines were cultured in DMEM (Corning, #MT10013CV) supplemented with 10% heat-inactivated FBS (Gibco, #16140–071). All cell lines were maintained at 37°C and 5% CO2. For amino acid starvation, cells were rinsed once with and incubated Amino acid-free RPMI (US Biologicals, #R8999-04A) supplemented with 10% dialyzed FBS (Gibco, #26400044) for 50 min followed by treatment with NV-5297, leucine, or vehicle for 10 minutes. For leucine starvation, cells were rinsed once with and incubated in leucine-free DMEM (AthenaES, #0420) supplemented with 10% dialyzed FBS (Gibco, #26400044) for 50 minuted followed by treatment with NV-5297, leucine, or vehicle for 10 minutes.
(A) Activation of the mTORC1 pathway by NV-5297. […] (B) NV-5297 disrupts Sestrin2/GATOR2 in the in vitro Sesn2/WDR24 protein-protein interaction assay in a dose-dependent manner. […] Representative immunoblots of ^T389pS6K1 and quantification of the normalized level of ^T389pS6K1 from 8 independent experiments (F) show TORC1 activity in unedited HEK-293T cells, HEK-293T cells deficient for Sestrin 1 (Sesn1), 2 (Sesn2) and 3 (Sesn3) (D) or HEK-293T cells deficient for the GATOR1 component Nprl3 (E) after 50 minutes leucine starvation followed by the addition of vehicle, NV-5297 or leucine for 10 minutes. […]

[5] = biological target: T1, Sestrin2/GATOR2 interaction (Homo sapiens, UniProt P58004); test: Intact cells-based Sestrin2/GATOR2 protein-protein interaction assay, Flag-WDR24 293T cells; type: cell-based; conditions: leucine-starved flag-WDR24 HEK-293T cells, 10 minutes, S1C Fig
T1 construct: endogenous in cells; host or cells: Flag-WDR24 293T (HEK293T) cells
T1 sequence (P58004 1-480): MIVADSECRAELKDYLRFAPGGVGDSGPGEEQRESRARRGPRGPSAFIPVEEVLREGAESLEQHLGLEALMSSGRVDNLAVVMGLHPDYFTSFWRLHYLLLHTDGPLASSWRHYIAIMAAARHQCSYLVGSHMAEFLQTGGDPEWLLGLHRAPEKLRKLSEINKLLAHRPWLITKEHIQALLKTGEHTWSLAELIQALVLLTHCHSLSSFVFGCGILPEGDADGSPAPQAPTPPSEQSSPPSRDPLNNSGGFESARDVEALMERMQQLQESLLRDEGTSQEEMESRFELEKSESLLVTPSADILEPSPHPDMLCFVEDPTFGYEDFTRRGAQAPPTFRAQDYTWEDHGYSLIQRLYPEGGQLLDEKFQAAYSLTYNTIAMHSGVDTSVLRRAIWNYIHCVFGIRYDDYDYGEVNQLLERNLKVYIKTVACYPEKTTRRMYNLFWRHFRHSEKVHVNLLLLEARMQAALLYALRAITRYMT
Procedure: Flag-WDR24 293T cells were washed and placed in leucine-free DMEM supplemented 10% dFBS for 50 minutes followed by treatment with NV-5297, leucine or vehicle for 10 minutes. Cells were rinsed once with ice-cold PBS and immediately lysed with Triton lysis buffer (1% Triton, 10 mM β-glycerol phosphate, 10 mM pyrophosphate, 40 mM Hepes pH 7.4, 2.5 mM MgCl2 and 1 tablet of EDTA-free protease inhibitor). The cell lysates were cleared by centrifugation at 13,200 rpm at 4°C in a microcentrifuge for 10 minutes. Prior to immunoprecipitations, an aliquot of lysate was taken for SDS-PAGE and immunoblotting for pS6K1, S6K1 and tubulin. For anti-FLAG immunoprecipitations, the FLAG-M2 affinity gel was washed 3 times with Triton lysis buffer, and 30 μl of a 50/50 slurry of the FLAG-M2 affinity gel was then added to approximately 2 mg of clarified cell lysates and incubated with rotation for 3 hours at 4°C. Following immunoprecipitation, the beads were washed one time with Triton wash buffer containing 500 mM NaCl. Immunoprecipitated proteins were denatured, resolved by SDS-PAGE, and analyzed by immunoblotting.
Next, Sestrin2/GATOR2 protein-protein interactions in response to NV-5297 were measured using cell-free assays and in vitro. For this, HEK293T cells stably expressing flag-WDR24, a component of GATOR2 [44], were used. The cell-free assays utilized Sestrin2/GATOR2 complexes immunoprecipitated from amino acid-starved cells with an anti-flag antibody.

[6] = test system: SesnTKO HEK293T cells; test: mTORC1 activation (p70S6K1) in HEK293T cells null for all three Sestrin isoforms; type: cell-based; conditions: leucine-starved 50 minutes, treatment 10 minutes
Procedure: as §1
(§2) To ascertain if Sestrins and the GATOR pathway are required for NV-5297 activity, we tested mTORC1 activation in cells null for either all three Sestrin isoforms [SesnTKO] or for the GATOR1 component Npr13 [Npr13KO] [44]. […]
(§3) (A) Activation of the mTORC1 pathway by NV-5297. […] Representative immunoblots of ^T389pS6K1 and quantification of the normalized level of ^T389pS6K1 from 8 independent experiments (F) show TORC1 activity in unedited HEK-293T cells, HEK-293T cells deficient for Sestrin 1 (Sesn1), 2 (Sesn2) and 3 (Sesn3) (D) or HEK-293T cells deficient for the GATOR1 component Nprl3 (E) after 50 minutes leucine starvation followed by the addition of vehicle, NV-5297 or leucine for 10 minutes. […]

[7] = test system: Npr13KO HEK293T cells; test: mTORC1 activation (p70S6K1) in HEK293T cells null for GATOR1 component Nprl3; type: cell-based; conditions: leucine-starved 50 minutes, treatment 10 minutes
Procedure: as §1, §2, §3

| SMILES | Sestrin2 binding [1] | mTORC1 activation in peripheral tissues and CNS [2] | synaptic formation in the medial prefrontal cortex [3] | mTORC1 activation measured by phosphorylated S6K1 (pS6K1 / p70S6K1) [4] | p70S6K1 (T389 pS6K1) level [5] | p70S6K1 levels [6] | p70S6K1 levels [7] |
| --- | --- | --- | --- | --- | --- | --- | --- |
| CC(C)(C[C@H](N)C(=O)O)C(F)F [NV-5138] | binds Sestrin2 | transiently activates mTORC1 | improved synaptic formation |  |  |  |  |
| CC(C)C[C@H](N)C(=O)O [leucine, reference compound] |  |  |  | activates mTORC1 in leucine-starved HEK293T cells in a dose-dependent manner | Dose-dependent activation of mTORC1 | remained unchanged | remained unchanged |
